# Experimental data from publication PMC11477289, “Low-Basicity 5-HT6 Receptor Ligands from the Group of Cyclic Arylguanidine Derivatives and Their Antiproliferative Activity Evaluation” (International Journal of Molecular Sciences, 2024).
# Where two headings read alike, the source gives them in different places.
# How the values were obtained:
# human 5-HT6 [1] = target: T1, human 5-HT6 (Homo sapiens, UniProt P50406); assay: [3H]-LSD radioligand binding assay, 5-HT6R; settings: HEK293 expressing human 5-HT6R, read-out: 5-HT6 Ki
# T1 construct: expressed in transfected cells
# Description: Next, the ligands’ affinity for the 5-HT6 receptors was evaluated in the [^3H]-LSD radioligand binding assay. Experiments were performed in a stable HEK293 cell line expressing the human 5-HT6R.
# The pellets were stored at −80 °C.
# human 5-HT6 [2] = target: T1, human 5-HT6; assay: Functional evaluation, cAMP (LANCE Ultra) in HEK293 cells; format: cell-based; settings: for Kb: antagonist mode, cAMP induced by 5-CT 1000 nM
# Description: The supernatant was aspirated, and the cell pellet was resuspended in a stimulation buffer (1 × HBSS, 5 mM HEPES, 0.5 mM IBMX, 0.1% BSA).
# The functional properties of compounds were evaluated using the LANCE Ultra cAMP detection kit (PerkinElmer). […] To investigate the antagonist activity, dopamine for D2R was added at a concentration of 10 nM, and for cell lines with 5-HT7R, 5-HT1AR, or 5-HT6R, 5-CT concentrations were adjusted, being, respectively, 10, 100, and 1000 nM, according to the receptor subtype.
# For the quantification of cAMP levels, cells (5 µL) were incubated with a 5 µL mixture of necessary compounds for 30 min at room temperature in a 384-well white opaque microtiter plate (PerkinElmer). After incubation, the reaction was stopped, and cells were lysed by the addition of a 10 µL working solution (5 µL Eu-cAMP and 5 µL ULight-anti-cAMP). The assay plate was incubated for 1 h at room temperature. The time-resolved fluorescence resonance energy transfer (TR-FRET) signal was detected by an Infinite M1000 Pro (Tecan, Männedorf, Switzerland) using instrument settings from the LANCE Ultra cAMP detection kit manual.
# [3] = Metabolic stability in mouse liver microsomes (MLMs); format: in vitro ADME; settings: mouse, mouse liver microsomes, 120 min
# Description: The metabolic stability of PR 68, PR 73, and PR 76 were determined in mouse liver microsomes (MLMs).
# The metabolic stability of PR 68 was estimated with mouse liver microsomes (MLMs) (Sigma-Aldrich, St. Louis, MO, USA). […] Cold methanol was then added to the reaction mixture to quench the reaction. The precipitated MLMs were centrifuged, and the supernatant was analyzed by LC/MS with a Waters ACQUITY™ TQD system with a TQ detector (Waters, Milford, USA).
# (1 picture or pasted object on this page, not shown here)
# [4] = system: MCF7 breast carcinoma cell line; assay: Antiproliferative activity (MTS), MCF7; settings: read-out: IC50 Values MCF7
# U87MG glioblastoma cells = assay: Antiproliferative activity (MTS), U87MG; settings: 72 h, read-out: IC50 Values U87MG
# U-251 glioblastoma cells = assay: Antiproliferative activity (MTS), U-251; settings: read-out: IC50 Values U-251
# [5] = system: 1321N1 astrocytoma cell line; assay: Antiproliferative activity (MTS), 1321N1; settings: read-out: IC50 Values 1321N1
# [6] = system: LN-229 glioblastoma cell line; assay: Antiproliferative activity (MTS), LN-229; settings: read-out: IC50 Values LN-229
# [7] = system: AsPC-1 pancreas adenocarcinoma cell line; assay: Antiproliferative activity (MTS), AsPC-1; settings: read-out: IC50 Values AsPC-1
# 5-HT7b receptor = 5-HT7b receptor (Homo sapiens, UniProt P34969); assay: [3H]-5-CT radioligand binding assay, 5-HT7
# D2L receptor = D2L receptor (Homo sapiens, UniProt P14416); assay: [3H]-raclopride radioligand binding assay, D2
# 5-HT1A receptor = target: T2, 5-HT1A receptor (Homo sapiens, UniProt P08908); assay: [3H]-8-OHDPAT radioligand binding assay, 5-HT1A
# T2 sequence (P08908 1-422): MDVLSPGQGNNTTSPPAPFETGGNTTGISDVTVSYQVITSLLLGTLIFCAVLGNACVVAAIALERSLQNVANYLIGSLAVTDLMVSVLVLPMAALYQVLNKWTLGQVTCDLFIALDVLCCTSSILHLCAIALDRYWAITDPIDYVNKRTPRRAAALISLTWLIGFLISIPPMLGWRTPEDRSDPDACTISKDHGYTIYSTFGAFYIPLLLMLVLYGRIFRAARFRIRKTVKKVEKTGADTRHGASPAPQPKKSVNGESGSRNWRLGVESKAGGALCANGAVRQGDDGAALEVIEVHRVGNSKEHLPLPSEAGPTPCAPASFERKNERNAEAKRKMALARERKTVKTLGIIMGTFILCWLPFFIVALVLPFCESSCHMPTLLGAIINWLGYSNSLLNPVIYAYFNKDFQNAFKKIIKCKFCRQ
# HEK293 = assay: Cytotoxic activity on HEK293; format: cell-based; settings: Homo sapiens
# Description: Table 6 Extended receptor affinity study, with functional tests and cytotoxic activity of selected compounds on HEK293. | column: HEK293 / IC50 [µM]
# [8] = system: normal human astrocytes (NHAs); assay: Activity on normal astrocytes (MTS), NHA; settings: for IC50: Homo sapiens, Astrocyte, 72 h, read-out: IC50 Values NHA
# [9] = Chromatographic hydrophobicity index on C18 column (lipophilicity); format: physicochemical
# Description: We began with an assay for lipophilicity, affinity for phospholipids (for 40 compounds), and drug binding to human serum albumin (HSA) (for 20 compounds), using chromatographic protocols developed by Valko [46] and implemented in our laboratory [47]. […] These methods allowed the determination of chromatographic hydrophobicity indices (CHIs), binding to HSA (%HSA), and phospholipids (CHIIAM) using a single-gradient elution experiment and comparison to reference substances.
# [10] = Affinity to phospholipids, IAM column (CHI IAM); format: physicochemical; settings: IAM.PC.DD2 column, pH 7.4
# [11] = target: T3, human serum albumin (HSA) (Homo sapiens, UniProt P02768); assay: Binding to HSA, Chiralpak HSA column
# Description: We began with an assay for lipophilicity, affinity for phospholipids (for 40 compounds), and drug binding to human serum albumin (HSA) (for 20 compounds), using chromatographic protocols developed by Valko [46] and implemented in our laboratory. Compounds with the highest affinity for 5-HT6R and those showing the most promising ADMET parameters, including the possibility of BBB penetration, DDI, and lipophilicity, determined in silico in SwissADME [45], were selected for testing. These methods allowed the determination of chromatographic hydrophobicity indices (CHIs), binding to HSA (%HSA), and phospholipids (CHIIAM) using a single-gradient elution experiment and comparison to reference substances.
# The use of columns modified with plasma proteins, such as HSA, also allows for the estimation of binding to HSA, which is the most dominant plasma protein (PP). Binding to PP affects drug pharmacokinetics, such as distribution, half-life, and clearance.
# The mobile phase flow rate was 1.5 mL/min, and the column was maintained at 30 °C. • Chiralpak® HSA (50 mm × 4 mm; 5 µm with safety guard column; Daicel Chiral Technologies, West Chester, PA, USA), mobile phase A: 50 mM ammonium acetate, mobile phase B: HPLC-grade isopropanol (VWR International, Leuven, Belgium). For the first 15 min, the linear gradient from 0 to 20% isopropanol was applied and then held at 20% isopropanol for 12 min. In the last 5 min of the sequence, the mobile phase mixture received a pure ammonium acetate solution. The column temperature was held at 30 °C, whereas the flow rate was 0.9 mL/min.
# The reference substances for the calibration of HSA, C18, and IAM columns were purchased, respectively: acetanilide, butyrophenone, diclofenac, and octanonophenone (Alfa Aesar, Haverhill, MA, USA); acetophenone, benzimidazole, colchicine, indole, indometacin, paracetamol, and theophylline (Sigma-Aldrich, Steinheim, Germany); nicardipine and nizatidine (Cayman Chemical, Ann Arbor, MI, USA); carbamazepine, heptanophenone, hexanophenone, propiophenone, and valerophenone (Acros Organic, Pittsburg, PA, USA). Before chromatographic experiments, solutes were dissolved in dimethyl sulfoxide (Avantor Performance Materials Poland S.A., Gliwice, Poland) to obtain a 200 µg/mL concentration. The detection was performed in the UV region at the wavelength from 190 nm to 300 nm. The injected volume was 5 μL, and each compound was analyzed in triplicate.
# 5-HT5A receptor = 5-HT5A receptor (Homo sapiens, UniProt P47898); assay: [3H]-LSD radioligand binding assay, 5-HT5A; settings: read-out: 5-HT5A Ki; [3H]-LSD, HEK293
# [12] = set-up: method as in PMID 36183548; settings: MLMs, as previously reported ref 30; cited from earlier work
# [13] = target: T3, human serum albumin (HSA); set-up: purchased Daicel Chiral Technologies; method as in PMID 28215942; settings: cited from earlier work
# HSA and AGP (24:1) = assay: in vitro; settings: human, plasma
# T1 sequence (P50406 whole entry): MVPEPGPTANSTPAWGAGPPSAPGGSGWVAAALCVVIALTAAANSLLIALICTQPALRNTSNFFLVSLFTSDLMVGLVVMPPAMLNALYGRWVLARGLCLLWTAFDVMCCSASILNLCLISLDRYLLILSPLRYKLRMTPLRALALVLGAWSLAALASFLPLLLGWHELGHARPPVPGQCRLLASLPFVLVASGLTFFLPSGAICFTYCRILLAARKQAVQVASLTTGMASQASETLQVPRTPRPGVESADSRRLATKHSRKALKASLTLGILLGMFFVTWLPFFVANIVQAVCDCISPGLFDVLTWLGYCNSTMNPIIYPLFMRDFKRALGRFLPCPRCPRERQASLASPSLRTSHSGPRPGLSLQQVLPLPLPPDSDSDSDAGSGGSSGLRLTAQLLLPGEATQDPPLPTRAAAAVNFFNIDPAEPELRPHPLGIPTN
# Chain of D2L receptor (P14416 whole entry): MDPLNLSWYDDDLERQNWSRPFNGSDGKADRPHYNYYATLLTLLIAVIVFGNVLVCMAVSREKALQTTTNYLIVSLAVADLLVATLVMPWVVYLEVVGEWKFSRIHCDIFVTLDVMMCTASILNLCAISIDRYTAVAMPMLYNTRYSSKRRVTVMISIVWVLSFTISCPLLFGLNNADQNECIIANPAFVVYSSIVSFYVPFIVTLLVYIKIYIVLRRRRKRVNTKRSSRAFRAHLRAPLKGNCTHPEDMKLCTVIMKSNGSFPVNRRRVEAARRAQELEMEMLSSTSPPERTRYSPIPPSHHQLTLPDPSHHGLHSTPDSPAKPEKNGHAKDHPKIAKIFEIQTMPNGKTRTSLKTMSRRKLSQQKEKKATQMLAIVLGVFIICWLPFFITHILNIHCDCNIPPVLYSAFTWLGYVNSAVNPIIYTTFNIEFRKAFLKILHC
# T3 sequence (P02768 25-609): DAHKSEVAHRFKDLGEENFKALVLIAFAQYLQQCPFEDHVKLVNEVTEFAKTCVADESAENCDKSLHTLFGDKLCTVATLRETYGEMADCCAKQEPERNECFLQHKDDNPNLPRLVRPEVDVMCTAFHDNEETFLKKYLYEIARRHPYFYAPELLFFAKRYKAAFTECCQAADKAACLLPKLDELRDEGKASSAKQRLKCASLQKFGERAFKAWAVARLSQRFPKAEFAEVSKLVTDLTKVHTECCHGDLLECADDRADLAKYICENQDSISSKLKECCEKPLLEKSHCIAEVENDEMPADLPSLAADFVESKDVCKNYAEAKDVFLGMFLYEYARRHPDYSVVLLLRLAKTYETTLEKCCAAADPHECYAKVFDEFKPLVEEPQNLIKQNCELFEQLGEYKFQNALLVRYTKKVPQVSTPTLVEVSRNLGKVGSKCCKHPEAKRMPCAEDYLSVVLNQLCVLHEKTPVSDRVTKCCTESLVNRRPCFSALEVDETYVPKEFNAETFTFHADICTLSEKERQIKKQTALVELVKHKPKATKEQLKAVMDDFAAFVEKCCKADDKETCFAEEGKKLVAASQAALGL
# Chain of 5-HT7b receptor (P34969 1-432 limits assumed): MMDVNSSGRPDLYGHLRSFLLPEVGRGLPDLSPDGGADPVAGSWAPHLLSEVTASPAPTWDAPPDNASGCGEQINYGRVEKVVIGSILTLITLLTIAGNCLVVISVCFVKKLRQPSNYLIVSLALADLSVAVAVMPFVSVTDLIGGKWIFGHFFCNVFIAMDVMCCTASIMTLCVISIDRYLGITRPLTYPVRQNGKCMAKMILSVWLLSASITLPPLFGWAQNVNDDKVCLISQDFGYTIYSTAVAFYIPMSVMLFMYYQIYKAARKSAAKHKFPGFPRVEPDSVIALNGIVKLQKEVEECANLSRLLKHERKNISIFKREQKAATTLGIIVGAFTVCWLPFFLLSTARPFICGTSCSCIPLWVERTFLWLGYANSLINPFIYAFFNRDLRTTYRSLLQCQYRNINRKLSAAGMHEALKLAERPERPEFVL
# Chain of 5-HT5A receptor (P47898 whole entry): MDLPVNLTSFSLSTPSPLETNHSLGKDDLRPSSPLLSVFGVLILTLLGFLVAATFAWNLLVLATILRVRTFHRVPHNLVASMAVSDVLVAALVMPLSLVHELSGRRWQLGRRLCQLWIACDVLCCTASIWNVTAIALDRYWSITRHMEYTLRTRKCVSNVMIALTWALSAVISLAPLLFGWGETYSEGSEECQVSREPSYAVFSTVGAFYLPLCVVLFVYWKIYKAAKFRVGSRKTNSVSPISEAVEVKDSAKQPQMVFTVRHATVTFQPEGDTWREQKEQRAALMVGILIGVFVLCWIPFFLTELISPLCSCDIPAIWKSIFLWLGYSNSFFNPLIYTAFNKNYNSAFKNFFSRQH
Molecule,Ki (human 5-HT6 [1]) [nM],melting point [°C],"IC50 ([4]; Homo sapiens, MCF7, 72 h) [µM]","IC50 (U87MG glioblastoma cells; Homo sapiens, U-87 MG) [µM]","IC50 (U-251 glioblastoma cells; Homo sapiens, U-251, 72 h) [µM]","IC50 ([5]; Homo sapiens, 1321-N1, 72 h) [µM]","IC50 ([6]; Homo sapiens, LN-229, 72 h) [µM]","IC50 ([7]; Homo sapiens, ASPC1, 72 h) [µM]",Ki (5-HT7b receptor) [µM],Ki (D2L receptor) [µM],Ki (5-HT1A receptor) [µM],CHI C18 pH 2.6 [9],CHI C18 pH 7.4 [9],CHI C18 pH 10.5 [9],CHI IAM [10],further results
"CC1c2ccccc2N=C(NS(=O)(=O)c2cccc3ccccc23)N1C (stereo not drawn) [PR 76, N -(3,4-dimethyl-3,4-dihydroquinazolin-2-yl)naphthalene-1-sulfonamide]",103 ± 25,215 to 217,> 25,> 25,> 25,> 25,> 25,> 25,35.6,174,11,,,,,"EC50 (human 5-HT6 [2]; agonist mode, cAMP): 199 nM; function at 5-HT6R (human 5-HT6 [2]; cAMP): agonist; remaining at 2 h, 50 µM [3]: 87.4%"
"O=S(=O)(NC1=Nc2c(Cl)cccc2CN1)c1cccc2ccccc12 [PR 49, N -(8-chloro-3,4-dihydroquinazolin-2-yl)naphthalene-1-sulfonamide]",77 ± 18,250 to 256,> 25,> 25,> 25,> 25,> 25,> 25,142,,207,,,,,Kb (human 5-HT6 [2]): 81 nM; IC50 (HEK293): 38.8 µM
"CN(C)c1ccc2c(c1)CNC(NS(=O)(=O)c1cccc3ccccc13)=N2 [PR 64, N -[6-(dimethylamino)-3,4-dihydroquinazolin-2-yl]naphthalene-1-sulfonamide]",851 ± 192,216 to 222,9.7 ± 1.7,> 25,7.7 ± 0.8,> 25,> 25,> 25,,,,,,,,IC50 [8]: 15.1 ± 2.1 µM; selectivity index ([8]; activity on NHA compared to U-251 cells): 1.96
"N -[6-(4-methylpiperazin-1-yl)-3,4-dihydroquinazolin-2-yl]naphthalene-1-sulfonamide [PR 66]",11600 ± 2660,,,,,,,,,,,81.4,79.6,80.7,36.0,"%HSA [11]: 92.7%; logKHSA [11]: 1.0; IC50 ([4]; 72 h, MTS): > 25 µM; IC50 (U87MG glioblastoma cells; MTS): > 25 µM; IC50 (U-251 glioblastoma cells; 72 h, MTS): > 25 µM; IC50 ([5]; 72 h, MTS): > 25 µM; IC50 ([6]; 72 h, MTS): > 25 µM; IC50 ([7]; 72 h, MTS): > 25 µM; Ki (5-HT5A receptor): 3.44 µM"
"O=S(=O)(NC1=NCc2ccccc2N1)c1cccc2ccccc12 [PR 40, N -(3,4-dihydroquinazolin-2-yl)naphthalene-1-sulfonamide]",651 ± 135,,,,,,,,,,,,,,,metabolized [12]: 97%
O=c1[nH]c2ccccc2n1C1CCN(CCCC(c2ccc(F)cc2)c2ccc(F)cc2)CC1 [pimozide],,,,,,,,,,,,,,,,affinity to HSA [13]: 98.6%
"CC1NC(NS(=O)(=O)c2cccc3ccccc23)=Nc2c(Cl)cccc21 (stereo not drawn) [PR 71, N -(8-chloro-4-methyl-3,4-dihydroquinazolin-2-yl)naphthalene-1-sulfonamide]",61 ± 14,215 to 219,> 25,> 25,> 25,> 25,> 25,> 25,37.5,142,134,102.2,100.7,103.8,44.8,Kb (human 5-HT6 [2]): 35 nM; %HSA ([11]; Chiralpak HSA column): 97.5%; logKHSA ([11]; Chiralpak HSA column): 1.4
"CN(C)C/C=C/C(=O)Nc1cc2c(Nc3ccc(F)c(Cl)c3)ncnc2cc1O[C@H]1CCOC1 [Afatinib, reference compound]",,,25.9,,27,,9.8,,,,,,,,,IC50 [8]: 7.5 µM
"CC1OC(NS(=O)(=O)c2cccc3ccccc23)=Nc2ccccc21 (stereo not drawn) [PR 77, N -(4-methyl-4H-3,1-benzoxazin-2-yl)naphthalene-1-sulfonamide]",373 ± 92,229 to 233,> 25,> 25,> 25,> 25,> 25,> 25,56.7,222,7.54,102.5,99.9,103.2,40.8,%HSA ([11]; Chiralpak HSA column): 95.9%; logKHSA ([11]; Chiralpak HSA column): 1.3
CC(=O)CC(c1ccccc1)c1c(O)c2ccccc2oc1=O (stereo not drawn) [warfarin],,,,,,,,,,,,,,,,"fraction unbound at 12 min, 20 µM (HSA and AGP (24:1)): 0.015"
